For data set [1], the system named is G361 cells. As to the kind of experiment: Western blotting of epithelial/mesenchymal markers, G361 cells. The format is cell-based. Conditions: G361, 24 hrs. The procedure:
1.1.5 Western blotting—Detailed protocols have been described previously and are known in the art. Briefly, cell lysates were prepared by suspending cell pellets in lysis buffer [50 mmol/l Tris-HCl (pH 8.0), 150 mmol/l NaCl, 1% NP40, 0.5% deoxycholate, 0.1% SDS, 1 mg/ml aprotinin, 1 μg/ml leupeptin and 1 mmol/l phenylmethylsulfonyl fluoride]. For nuclear protein extraction, NucBuster™ protein extraction kit was used. Protein concentration was measured using the DC Protein Assay kit (Bio-Rad, Hercules, Calif.). Equal amount of protein (30 μg) was loaded onto a 10% SDS polyacrylamide gel for electrophoresis and then transferred onto a polyvinylidene difluoride membrane (Amersham, Piscataway, N.J.). The membrane was then incubated with primary antibodies for 1 hr at room temperature against E-cadherin (BD Biosciences, Bedford, Mass.), α-catenin, β-catenin, γ-catenin, Id-1, Id-3, EGFR, phosphor-c-jun, phosphor-ATF2, cleaved PARP, vimentin, α-smooth muscle actin, twist (Santa Cruz Biotechnology, Calif.), phosphor-IkB-alpha (Ser32/36), phosphor-IKK alpha (Seri 80)/IKK beta (Ser181), phosphor-SAPK/JNK (Thr183/Tyr185) G9, SAPK/JNK, NF-kB p65 (5A5) (Cell Signaling Technology Inc, Beverly, Mass.), Snail (Abcam). […] Expression of β-actin and histone H1 were assessed as an internal loading control for total cell lysate and nuclear protein lysate respectively.
On the technique in general: Immunoblotting shows a protein as a band on a membrane.

A short description of data set [2]: γ-T3 level in tumors and organs by HPLC. The format is in vivo, BALB/c athymic nude mice. Conditions: 50 mg/kg/day γ-T3 for 10 days. As for the experimental part:
Nude mice bearing similar tumor sizes of about 100 mm^3 (after 2 weeks inoculation) were selected and randomly divided into three groups (n=5 per group); control (DMSO as vehicle), γ-T3 (50 mg/kg/d) and combination treatment of γ-T3 and Docetaxel (50 mg of γ-T3/kg/d and 7.5 mg of Docetaxel/kg/wk). The mice were weighed as daily basic and the tumors were measured using a Digital Carbon Fiber Caliper (Fisher scientific, Pittsburgh, Pa.) at the same time. The tumor volume was calculated as 4/3*π*(mean diameter/2)^3. The mice were dosed 5 times a week for 2 weeks. After 10 days of treatment, the mice were euthanized by CO2 inhalation. Blood samples were collected through cardiac bleeding using 25-gauge needle. Blood samples were incubated at room temperature for 30 min, followed by centrifugation at 4400 rpm, 4° C. for 30 min. Serum, as the supernatant, was separated from plasma and stored at −80° C. Tumor, liver, kidney, spleen, lung and heart were harvested. Part of the tumors was fixed in 10% neutral buffered formalin solution. […]
4.1.7 Determination of γ-Tocotrienol level by high performance liquid chromatography—A normal phase of HPLC method was performed as a modification of procedures known in the art. […] The absorbance of γ-T3 was monitored with a […] set at an excitation wavelength of 290 nm and emission wavelength of 360 nm.

The subject of data set [3] is G361 cells. Briefly: Matrigel-invasion assay, G361 cells. The class given is cell-based. Conditions: γ-T3 at IC50 and IC85. The procedure:
1.1.4 Matrigel-invasion assay—Matrigel-invasion assay was performed according to a previously published method with modifications. Briefly, cells were pre-incubated in a serum-free RPMI 1640 medium with or without γ-T3 isomers for 24 hrs. Cells (2.5×10^5) resuspended in 500 μl of serum-free RPMI 1640 containing 0.1% bovine serum albumin (BSA) were then added to the upper chamber of a 8 μm pore size insert (Millipore, Bedford, Mass.) manually coated with Matrigel (0.5 mg/ml) (BD Bioscience, Bedford, Mass.). Five hundred μl of invasion buffer containing fibronectin (10 μg/ml) and RPMI 1640 supplemented with 10% FCS were added in the lower chamber as a chemo-attractant. Cells were incubated at 37° C. for 24 hrs in 5% CO2 humidified conditions. At the end of incubation period, inserts were stained with Diff-Quick staining solution (Fischer Scientific). Non-invaded cells on the inside of the insert were scraped off with a cotton swab. Cell invasions were then examined by a phase-contrast microscope. The invaded cells were extracted using extraction buffer (Millipore, Bedford, Mass.) and the cell number was estimated based on absorbance at 595 nm.

The subject of another data set is DU145 cells. As to the kind of experiment: Western blotting of CD44, DU145 cells. The format is cell-based. The conditions noted are these: doses with minimum effect on viability. As for the experimental part: 5.1.5 Western blotting was carried out as described above under 1.1.5. The membrane was incubated with primary antibodies directed against CD133 (Miltenyi Biotec, Auburn, Calif.), Bcl-2, PARP, cleaved caspase 3, 7, 9 (Cell Signaling, Technology Inc, Beverly, Mass.), CD44 and β-actin (Santa Cruz Biotechnology, Santa Cruz, Calif.). After washing with TBS-T, the membrane was incubated with secondary antibody against either mouse or rabbit IgG and the signals were visualized using ECL plus western blotting system (Amersham, Piscataway, N.J.).

Regarding `CC(C)=CCC/C(C)=C/CC/C(C)=C/CCC1(C)CCc2cc(O)c(C)c(C)c2O1` (stereo not drawn) [γ-T3, 7,8-dimethyltocotrienol], in the data set on G361 cells [1], the “E-cadherin and γ-catenin protein expression” value was “up-regulated”; the “Snail and mesenchymal markers (vimentin, α-SMA and twist) expression” value is “down-regulated”. In addition, in data set [2], the “tumor γ-T3 amount relative to other internal organs” value is reported as “at least two-fold” and the “γ-T3 concentration within the tumors” value is given as 0.15±0.03 mg of γ-T3 per gram of wet weight. In addition, the “invasion capability compared to untreated control” value in the data set with G361 cells [3] was 2 -time lower. For the same compound, the CD44 expression result with DU145 cells is recorded as “suppression of CD44 expression”.

These data come from US20110195910A1, “USE OF TOCOTRIENOL COMPOSITION FOR THE PREVENTION OF CANCER” (DAVOS LIFE SCIENCE PTE. LTD., priority 2008, published 2011).
